Data set [1] can be described thus: Particle size distribution (PSD) analysis by laser diffraction. Format: physicochemical. The conditions noted are these: primary pressure of 4 bar, lens R1, R3 or R5 per sample. As to the method:
(§1) In order to provide a small and homogeneous particle size of psychedelic compound in the final suspensions, psilocybin and psilocin were micronised before use. Micronisation was performed by wet bead milling using decafluoropentane as the antisolvent. In a glass vial, 200 mg psychedelic compound and 2 g of 1 mm silica beads were weighed. 3 mL of the antisolvent was added for psilocybin and 2 mL for psilocin. The samples were vortexed for approximately 15 seconds then milled at 530 rpm for 60 minutes.
(§2) The micronised sample was then separated from the silica beads and transferred to a petri dish and left at room temperature to allow for evaporation of the solvent overnight (approximately 18 hours). The dried sample was then collected and characterised by PSD and XRPD.
Particle size analysis was carried out, in single analysis, by laser diffraction using a Sympatec Helos particle size analyser, equipped with a RODOS dry dispersion unit and ASPIROS feeder unit. The lens and primary pressures were varied for each compound tested.

Data set [2] is described as follows: Two-compartment IV bolus PK model fitted to published human psilocybin IV data. The note with it: psilocin after 1 mg psilocybin IV. Here is the method:
All analysis was performed using the software R and RStudio, with models being defined using analytical and ODE solutions.
Derivation of system PK parameters for psilocybin/psilocin Systemic PK parameters were derived for published human bolus psilocybin IV data.
Human IV PK data for psilocin after psilocybin was administered was taken from Hasler et al. “Determination of psilocin and 4-hydroxyindole-3-acetic acid in plasma by HPLC-ECD and pharmacokinetic profiles of oral and intravenous psilocybin in man”. Pharm Acta Helv. 1997 June; 72(3):175-84. Model selection was performed by assessing visual fit to data and the respective model AIC's of a one compartment and two compartment IV PK model. These systemic human PK parameters were then used for human […] injection simulations by simulating the PK profiles over a range of doses and absorption rates.
It is assumed that the generation of psilocin is instantaneous and complete once psilocybin is absorbed.
An IV two compartment model best described the IV data from FIG. 2. A two-compartment model gave a good description of the raw data capturing the Cmax and terminal phase well, FIG. 3. The systemic PK parameters can be seen in Table 1 and there are low errors in the parameter estimates.

Data set [3] can be described thus: One compartment SC PK model of psilocin fitted to digitised rat SC data. As to the method:
Rat SC PK data was digitised for four dose levels (Higgins, G. A. et al., 2021. “Low Doses of Psilocybin and Ketamine Enhance Motivation and Attention in Poor Performing Rats: Evidence for an Antidepressant Property”. Frontiers in Pharmacology, Volume 12, p. 299). The PK was fitted using a one compartment SC model where volume was fixed to the same as human in L/kg. The model was fit to the lower 3 doses levels as the higher dose was determined to be out of the range of investigation.
A one compartment model was used with linear absorption and clearance shown schematically in […]. Mathematically, this model is a series of two linked ordinary differential equations (ODE's) given in equations (7)-(8).
Constant ka is the absorption rate constant (units 1/h), Cl is the clearance (units mL/h), Vc is the volume of distribution of the central compartment (units mL).
It is assumed that the generation of psilocin is instantaneous once psilocybin is absorbed. Due to a lack of rat IV PK data and human and rat plasma protein binding data, total rat volume of distribution (V) on ml/kg basis was fixed to the same as human total volume of distribution. A one compartment SC model gives a satisfactory fit to the absorption phase, seen in FIG. 5, this gives good confidence of the fitted ka value seen in Table 2. Bioavailability was again assumed to be 1.

Data set [4] in a line: Human simulations of psilocin exposure after SC administration. The conditions noted are these: from absorption rate of rat SC model. Here is the method:
The model that was used is shown schematically in FIG. 6, mathematically the analytical solution is shown in equations (9)-(14).
Using the absorption rate from modelling the rat SC data and the human systemic psilocin PK parameters, human SC simulations were run over 1-12 mg doses and the simulated PK profiles can be seen in FIG. 7. […] These profiles can be seen in FIG. 8, with the summary statistics in Table 4.

A short description of another data set: XRPD after micronisation. Format: physicochemical. The note with it: wet bead milling in decafluoropentane. Here is the method:
as §1, §2
X-ray powder diffraction (XRPD) analysis was carried out using a Bruker D2 Phaser powder diffractometer equipped with a LynxEye detector. The specimens were located at the centre of a silicon sample holder within a 5 mm pocket. The samples were continuously spun during data collection and scanned using a step size of 0.02° two theta (2θ) between 5° to 60° two theta, the detailed parameters are summarised in Table 10. The data was processed using Diffrac Plus EVA software (Version 3.1).

Data set [5] in a line: Solubility in excipients (preparative work).
For data set [6] the following is noted: reported; cited from earlier work.
Where [7] appears, read: psilocin after SC psilocybin, rat, fit to 0.05, 0.1, 1 mg/kg.

Consider `CN(C)CCc1c[nH]c2cccc(O)c12` [Micronised psilocin], for which, in data set [1], the D10 came to 0.44 μm.
`CN(C)CCc1c[nH]c2cccc(OP(=O)(O)O)c12` [Micronised psilocybin]: in data set [1], the D10 is listed as 0.45 μm and the D50 was determined as 1.20 μm.
As to `CN(C)CCc1c[nH]c2cccc(O)c12` [psilocin, 4-hydroxy-N,N-dimethyltryptamine], in data set [2], the “Cl, clearance (95% CI)” value is reported as 3810 (3340, 4290) ml/min; the “V, volume of distribution of the central compartment (95% CI)” value is reported as 88600 (77300, 99900) ml; the “k12 (95% CI)” value was 0.176 (0.144, 0.208) /min; the “k21 (95% CI)” value is listed as 0.0489 (0.0388, 0.0591) /min. Moreover, the “dose normalised AUC” value in data set [3] (10 mg/kg SC psilocybin dose in rats versus other doses (not shown)) was “considerably greater than the other doses”. In data set [3] (setting [7]), the “Cl (95% CI)” value is 2490 (2260, 2710) mL/h and the “ka, absorption rate constant (95% CI)” value is given as 2.32 (2.03, 2.61) /h. In addition, the V in data set [3] (rat, fixed to human total volume of distribution on ml/kg basis) was 1746 (Fixed) mL. Also, the absorption half-life in data set [4] was 17.9 min. Also, the “chemical degradation upon micronisation (XRPD)” value in “XRPD after micronisation” was “no significant chemical degradation upon micronisation”. The “solubility versus pH” value in data set [5] (initial solution trials) is reported as “higher solubility at acidic pH”. Moreover, in data set [5] (non-micronised), the “solubility in DMSO and NMP” value is recorded as “good”.
With `CN(C)CCc1c[nH]c2cccc(OP(=O)(O)O)c12` [psilocybin, [3-(2-dimethylaminoethyl)-1H-indol-4-yl] dihydrogen phosphate], the “chemical degradation upon micronisation (XRPD)” value in “XRPD after micronisation” is reported as “no significant chemical degradation upon micronisation”. In addition, the bioavailability result in data set [6] was “approximately 50%”. Further, in data set [5] (non-micronised, 20 excipients), the “solubility in all the excipients tested” value was “poor”.
